Source: patent US11319289B2, “5-hydroxy pyridine-based compound for use as P2X1 and P2X3 receptor antagonist and pharmaceutical composition comprising same” (GWANGJU INSTITUTE OF SCIENCE AND TECHNOLOGY, priority 2017, dated 2022)

Tests used:
[1] = system: SNL rats (mechanical allodynia); experiment: Antiallodynic effect (von Frey) in spinal nerve ligation (SNL) rats; format: in vivo, rat; conditions: for ED50: Rattus norvegicus, antiallodynic effect, intravenous administration
Description: (§1) 3-1. Evaluation of In Vivo Efficacy
(§2) The antiallodynic effects (mechanical allodynia) were evaluated using rats according to a previously reported protocol. In order to evaluate the withdrawal threshold, rats (naive, SNL and CIPN) were placed on a plastic mesh floor of individual plastic cages. The rats were allowed to acclimate to the environment for 30 minutes and examined after intrathecal or intravenous administration to the caudal vein. The control group received the same volume of vehicle (intrathecal administration of saline or DMSO, intravenous administration of DMSO:PEG:PBS=1:6:3 v/v %) as the experimental groups. Evaluation of the mechanical withdrawal threshold was measured in responses to the application of calibrated von Frey filaments (Stoelting, Wood Dale, Ill., USA) to the hind paw of the rats through the holes on the mesh floor underneath the cage using the ‘up and down method’. A series of eight von Frey filaments (0.4, 0.7, 1.2, 2.0, 3.6, 5.5, 8.5, and 15 g) was applied perpendicular to the sole of the hind paw for 5 seconds while the head was bent. Active withdrawal or flinching of the paw was considered as a positive reaction. The absence of response in the rats, when a pressure was applied to 15 g von Frey filament, was used as a cut-off value. Only rats with definite allodynia (i.e., mechanical withdrawal threshold: less than 4 g after SNL or less than 5 g after CIPN) were tested. The rats after termination of the experiments were euthanized through an overdose of sevoflurane. The withdrawal threshold data for the von Frey filament test was calculated as % MPE (maximum possible effect) based on the following Calculation Equation: % MPE=[(Post-drug threshold−Post-injured baseline threshold)/(Cutoff threshold−post-injured baseline threshold)×100]. Dose-response data were analyzed using Scheffe's post hoc test and one-way analysis of variance (ANOVA).

[2] = system: neuropathic pain (NeP) animal models; experiment: Efficacy in neuropathic pain (NeP) animal models, model not specified; format: in vivo, rat; conditions: Rattus norvegicus, read-out: ED50 of clinical drugs for NeP
Description: as §1, §2

[3] = system: CIPN rats (mechanical allodynia); experiment: Antiallodynic effect (von Frey) in chemotherapy-induced peripheral neuropathy (CIPN) rats; format: in vivo; conditions: Rattus norvegicus, intravenous administration
Description: as §1, §2

## CC(C)C[C@H](CN)CC(=O)O [pregabalin, reference compound]
[1]; 1 μg, intrathecal administration
  antiallodynic efficacy, MPE %: 65±9%
[2]
  ED50: 4.21 mg/kg

## CCCc1nc(Cc2cccc(Oc3ccccc3)c2)c(C)c(C(=O)OCC)c1O [Compound 48, Ethyl 3-hydroxy-5-methyl-6-(3-phenoxybenzyl)-2-propylisonicotinate]
[1]
  ED50: 3.52 mg/kg
[3]
  ED50: 3.87 mg/kg

## CCCc1nc(Cc2cccc(Oc3ccccc3)c2)c(C)c(C(=O)OCCN2C(=O)c3ccccc3C2=O)c1O [Compound 46c, 2-phthalimidoethyl 3-hydroxy-5-methyl-6-(3-phenoxybenzyl)-2-propylisonicotinate]
[1]
  ED50: 2.97 mg/kg
[3]
  ED50: 3.28 mg/kg

## COc1cccc(C2(O)CCCCC2CN(C)C)c1 (stereo not shown) [tramadol, reference compound]
[2]
  ED50: 4.67 mg/kg

## CCCCCCCCOC(=O)c1c(C)c(Cc2cccc(Oc3ccccc3)c2)nc(CCC)c1O [Compound 46b, Octyl 3-hydroxy-5-methyl-6-(3-phenoxybenzyl)-2-propylisonicotinate]
[1]
  ED50: 2.47 mg/kg
[3]
  ED50: 2.93 mg/kg

## CCCc1nc(Cc2cccc(Oc3ccccc3)c2)c(C)c(C(=O)OC2CCCC2)c1O [Compound 46h, Cyclopentyl 3-hydroxy-5-methyl-6-(3-phenoxybenzyl)-2-propylisonicotinate]
[1]
  ED50: 3.64 mg/kg
[3]
  ED50: 3.91 mg/kg

## CCCc1nc(Cc2cccc(Oc3ccccc3)c2)c(C)c(C(=O)OCCc2ccccc2)c1O [Compound 46a, Phenethyl 3-hydroxy-5-methyl-6-(3-phenoxybenzyl)-2-propylisonicotinate]
[1]
  ED50: 2.31 mg/kg
[3]
  ED50: 3.02 mg/kg

## CCCc1nc(Cc2cccc(Oc3ccccc3)c2)c(C)c(C(=O)OCCCCN2C(=O)c3ccccc3C2=O)c1O [Compound 46d, 4-phthalimidobutyl 3-hydroxy-5-methyl-6-(3-phenoxybenzyl)-2-propylisonicotinate]
[1]
  ED50: 3.12 mg/kg
[3]
  ED50: 3.94 mg/kg

## CCCc1nc(Cc2cccc(Oc3ccccc3)c2)c(C)c(C(=O)OC2CCOC2)c1O (stereo not shown) [Compound 46i, Tetrahydrofuran-3-yl 3-hydroxy-5-methyl-6-(3-phenoxybenzyl)-2-propylisonicotinate]
[1]
  ED50: 2.87 mg/kg
[3]
  ED50: 3.56 mg/kg

## CCCc1nc(Cc2cccc(Oc3ccccc3)c2)c(C)c(C(=O)OC(C)C)c1O [Compound 46f, Isopropyl 3-hydroxy-5-methyl-6-(3-phenoxybenzyl)-2-propylisonicotinate]
[1]
  ED50: 2.78 mg/kg
[3]
  ED50: 3.08 mg/kg

## CCCc1nc(Cc2cccc(Oc3ccccc3)c2)c(C)c(C(=O)OCCN2CCCC2)c1O [Compound 46e, 2-(pyrrolidin-1-yl)ethyl 3-hydroxy-5-methyl-6-(3-phenoxybenzyl)-2-propylisonicotinate]
[1]
  ED50: 3.02 mg/kg
[3]
  ED50: 3.55 mg/kg

## CCCc1nc(Cc2cccc(Oc3ccccc3)c2)c(C)c(C(=O)OC2CCNCC2)c1O [Compound 47, Piperidin-4-yl 3-hydroxy-5-methyl-6-(3-phenoxybenzyl)-2-propylisonicotinate]
[1]
  ED50: 3.35 mg/kg
[3]
  ED50: 3.77 mg/kg

## CCCc1nc(Cc2cccc(Oc3ccccc3)c2)c(C)c(C(=O)OC(CC)CC)c1O [Compound 46g, Pentan-3-yl 3-hydroxy-5-methyl-6-(3-phenoxybenzyl)-2-propylisonicotinate]
[1]
  ED50: 3.42 mg/kg
[3]
  ED50: 3.66 mg/kg
